Measured values from patent publication US7737155B2, “Nitrogen-containing heterocyclic compounds and methods of use thereof” (Schering Corporation, priority 2005, dated 2010).

Molecular target: recombinant human nicotinic acid receptor (NAR) (Homo sapiens, UniProt Q8TDS4)
Assay: Nicotinic Acid Receptor Assay: inhibition of forskolin-stimulated cAMP accumulation in CHO cells (MesoScale Discovery cAMP kit)
Format: cell-based
Settings: CHO cells expressing recombinant human NAR; forskolin-stimulated cAMP; read-out: NA EC50 camp
Method in brief: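 Compounds were diluted in PBS containing 6 μM forskolin and incubated with cells for 30 min at room temperature. cAMP was quantified by the MesoScale kit against an on-plate standard curve.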

Sequence of recombinant human nicotinic acid receptor (NAR) (Q8TDS4 whole entry): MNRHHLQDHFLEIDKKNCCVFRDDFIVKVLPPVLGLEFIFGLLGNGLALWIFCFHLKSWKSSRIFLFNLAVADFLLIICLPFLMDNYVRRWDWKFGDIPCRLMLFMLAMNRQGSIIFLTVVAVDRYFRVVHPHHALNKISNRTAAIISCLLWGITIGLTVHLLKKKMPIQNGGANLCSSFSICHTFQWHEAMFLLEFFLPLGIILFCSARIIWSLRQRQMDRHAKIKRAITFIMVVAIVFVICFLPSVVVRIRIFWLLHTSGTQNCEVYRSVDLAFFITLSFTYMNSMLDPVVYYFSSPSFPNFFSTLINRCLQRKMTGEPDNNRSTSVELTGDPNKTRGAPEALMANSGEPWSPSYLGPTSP

Row | EC50 | Compound
1 | 100 to 1000 nM | CCc1cc(=O)oc2nc(OCCOc3cc(C(F)(F)F)ccn3)[nH]c(=O)c12 [Compound 602]
2 | 100 to 1000 nM | CCc1cc(=O)oc2nc(OCc3cccc(-c4ccc(OC)nc4)c3)[nH]c(=O)c12 [Compound 562]
3 | 100 to 1000 nM | O=c1cc(CCc2cccs2)c2c(=O)n(C3CCC3)c(=O)[nH]c2o1 [Compound 282]
4 | 100 to 1000 nM | CCc1cc(=O)oc2nc(OCc3cccc(-c4ccc(OC)c(OC)c4)c3)[nH]c(=O)c12 [Compound 565]
5 | 100 to 1000 nM | CCc1cc(=O)oc2nc(OCC(=O)c3ccccc3)[nH]c(=O)c12 [Compound 603]
6 | 100 to 1000 nM | CCc1cc(=O)oc2nc(OCc3cccc(-c4cccc(OC)c4)c3)[nH]c(=O)c12 [Compound 561]
7 | 100 to 1000 nM | O=c1[nH]c(=O)c2c(CCCOCC3CC3)cc(=O)oc2[nH]1 [Compound 273]
8 | > 1000 nM | CCC(C)(C)Cc1cc(=O)oc2[nH]c(=O)[nH]c(=O)c12 [Compound 204]
9 | 100 to 1000 nM | CCC#CC(C)Oc1nc2oc(=O)cc(CC)c2c(=O)[nH]1 (centres unmarked) [Compound 639]
10 | 0.001 to 100 nM | CCc1cc(=O)oc2nc(OCc3ccncc3)[nH]c(=O)c12 [Compound 523]
11 | 0.001 to 100 nM | CCCCc1cc(=O)oc2nc(OCC#CC(O)CC)[nH]c(=O)c12 (centres unmarked) [Compound 679]
12 | > 1000 nM | CCn1c(=O)[nH]c(=O)c2c(C)cc(=O)oc21 [Compound 291]
13 | 100 to 1000 nM | CCc1noc(C)c1COc1nc2oc(=O)cc(CCC(C)C)c2c(=O)[nH]1 [Compound 688]
14 | 100 to 1000 nM | CCc1cc(=O)oc2nc(OCc3ccccc3-n3ccnc3C)[nH]c(=O)c12 [Compound 583]
15 | > 1000 nM | CCOC(=O)CCc1cc(=O)oc2[nH]c(=O)[nH]c(=O)c12 [Compound 222]
16 | 100 to 1000 nM | CCc1cc(=O)oc2nc(OCc3ccc(-c4ccncc4)cc3F)[nH]c(=O)c12 [Compound 574]
17 | > 1000 nM | O=c1cc(CCCCc2cccs2)c2c(=O)n(C3CCC3)c(=O)[nH]c2o1 [Compound 280]
18 | 100 to 1000 nM | O=c1cc(CCCCC2CC2)c2c(=O)n(C3CCC3)c(=O)[nH]c2o1 [Compound 200]
19 | 100 to 1000 nM | CCn1c(=O)[nH]c2oc(=O)cc(CCC3CC3)c2c1=O [Compound 278]
20 | > 1000 nM | O=c1[nH]c(=O)c2c(CCCOCc3ccccc3)cc(=O)oc2[nH]1 [Compound 264]
21 | > 1000 nM | CC/C=C\CCc1cc(=O)oc2c1c(=O)[nH]c(=O)n2CC1CC1 [Compound 253]
22 | 100 to 1000 nM | CCc1cc(=O)oc2nc(OCc3cccc(-c4ccccc4Cl)c3)[nH]c(=O)c12 [Compound 564]
23 | 100 to 1000 nM | CCc1cc(=O)oc2nc(OCCOc3cccc(C)c3)[nH]c(=O)c12 [Compound 598]
24 | 100 to 1000 nM | CCc1cc(=O)oc2nc(OCc3cc(Br)no3)[nH]c(=O)c12 [Compound 649]
25 | > 1000 nM | CCc1cc(=O)oc2nc(OCc3ncccc3C)[nH]c(=O)c12 [Compound 556]
26 | 100 to 1000 nM | O=c1[nH]c(=O)c2c(C3CCCCC3)cc(=O)oc2[nH]1 [Compound 212]
27 | > 1000 nM | CCc1cc(=O)oc2nc(OCCSc3ccc(Cl)cc3)[nH]c(=O)c12 [Compound 587]
28 | > 1000 nM | CCc1cc(=O)oc2nc(OCc3cccc(-n4cccc4)c3)[nH]c(=O)c12 [Compound 612]

Row | EC50 | Compound
29 | 0.001 to 100 nM | O=c1[nH]c(=O)c2c(CC3CCC4CC34)cc(=O)oc2[nH]1 (centres unmarked) [Compound 235]
30 | 100 to 1000 nM | CCc1cc(=O)oc2nc(OCc3ncoc3-c3ccccc3)[nH]c(=O)c12 [Compound 540]
31 | > 1000 nM | CCc1cc(=O)oc2nc(OCc3cccc(-c4ccc(F)cc4)c3)[nH]c(=O)c12 [Compound 566]
32 | 100 to 1000 nM | CCc1cc(=O)oc2nc(OCCN3CCCC3=O)[nH]c(=O)c12 [Compound 592]
33 | 100 to 1000 nM | COc1ccc(-c2cc(CCCc3cc(=O)oc4[nH]c(=O)[nH]c(=O)c34)on2)cc1 [Compound 261]
34 | > 1000 nM | CC#CCCc1cc(=O)oc2[nH]c(=O)[nH]c(=O)c12 [Compound 217]
35 | 100 to 1000 nM | CCc1cc(=O)oc2nc(OC[C@H](C)OC)[nH]c(=O)c12 [Compound 632]
36 | > 1000 nM | CCc1cc(=O)oc2nc(OCC3CCCO3)[nH]c(=O)c12 (centres unmarked) [Compound 601]
37 | 100 to 1000 nM | CCc1cc(=O)oc2nc(OCc3ccc4ccccc4n3)[nH]c(=O)c12 [Compound 527]
38 | > 1000 nM | O=c1[nH]c(=O)c2c(Cc3cccc4ccccc34)cc(=O)oc2[nH]1 [Compound 265]
39 | 100 to 1000 nM | CCc1cc(=O)oc2nc(OCc3cc(C)n(C)n3)[nH]c(=O)c12 [Compound 530]
40 | 100 to 1000 nM | CC1(CCCc2cc(=O)oc3[nH]c(=O)n(C4CCC4)c(=O)c23)CC1 [Compound 285]
41 | > 1000 nM | O=C(OCc1ccccc1)N1CCC(CCc2cc(=O)oc3[nH]c(=O)[nH]c(=O)c23)CC1 [Compound 234]
42 | 100 to 1000 nM | CCc1cc(=O)oc2nc(OCc3ccc(C(F)(F)F)cn3)[nH]c(=O)c12 [Compound 545]
43 | > 1000 nM | O=c1[nH]c(=O)c2c(C3CCCC3)cc(=O)oc2[nH]1 [Compound 227]
44 | 100 to 1000 nM | O=c1cc(Cc2ccccc2)c2c(=O)[nH]c(OCc3ccccc3F)nc2o1 [Compound 616]
45 | 0.001 to 100 nM | O=c1cc(CCC2CCCC2)c2c(=O)n(C3CCC3)c(=O)[nH]c2o1 [Compound 241]
46 | 100 to 1000 nM | CCc1cc(=O)oc2nc(OCc3snnc3-c3ccccc3)[nH]c(=O)c12 [Compound 532]
47 | > 1000 nM | CCCCc1cc(=O)oc2nc(OCCOC)[nH]c(=O)c12 [Compound 660]
48 | 100 to 1000 nM | CCc1cc(=O)oc2nc(OCC#CC(CC)OC)[nH]c(=O)c12 (centres unmarked) [Compound 669]
49 | 100 to 1000 nM | CCCCc1c(-c2ccccc2)c(=O)oc2[nH]c(=O)[nH]c(=O)c12 [Compound 292]
50 | > 1000 nM | O=C(NCCCc1cc(=O)oc2[nH]c(=O)[nH]c(=O)c12)OCc1ccccc1 [Compound 228]
51 | > 1000 nM | O=c1[nH]c(=O)c2c(CCC3CCC3)c(-c3ccccc3)c(=O)oc2[nH]1 [Compound 699]
52 | 100 to 1000 nM | CCc1cc(=O)oc2nc(O[C@H](C)c3ccc4ccccc4c3)[nH]c(=O)c12 [Compound 500]
53 | > 1000 nM | CCc1cc(=O)oc2nc(O[C@H](C)C#CC(=O)OCc3ccccc3)[nH]c(=O)c12 [Compound 635]
54 | 100 to 1000 nM | CCOc1nc2oc(=O)cc(CCC(C)C)c2c(=O)[nH]1 [Compound 686]
55 | > 1000 nM | CCc1cc(=O)oc2nc(OCc3ccncc3NC(=O)C(C)(C)C)[nH]c(=O)c12 [Compound 659]

Row | Compound | EC50
56 | COCCCc1cc(=O)oc2[nH]c(=O)[nH]c(=O)c12 [Compound 209] | 100 to 1000 nM

Same assay, conditions: NA EC50 camp (nM), CHO cells expressing recombinant human NAR; forskolin-stimulated cAMP

Row | Compound | EC50
57 | CCc1cc(=O)oc2nc(OCC#CC3CC3)[nH]c(=O)c12 [Compound 589] | 0.001 to 100 nM
58 | CCOCCOc1nc2oc(=O)cc(CC)c2c(=O)[nH]1 [Compound 580] | > 1000 nM
59 | CCC#CCOc1nc2oc(=O)cc(Cc3ccccc3)c2c(=O)[nH]1 [Compound 615] | 100 to 1000 nM
60 | CCc1cc(=O)oc2nc(OCC#CCCO)[nH]c(=O)c12 [Compound 658] | 100 to 1000 nM

Same assay, conditions: NA EC50 camp, inhibition of forskolin-stimulated cAMP accumulation, CHO cells expressing recombinant human NAR

Row | Compound | EC50
61 | O=c1cc(CCC2CCC2)c2c(=O)[nH]c(C(F)F)nc2o1 [Compound 748] | 286 nM

Same assay, conditions: inhibition of forskolin-stimulated cAMP accumulation, CHO cells expressing recombinant human NAR; read-out: NA EC50 camp

Row | EC50 | Compound
62 | 17.9 nM | O=c1cc(CCCC2CC2)c2c(=O)n(C3CCC3)c(=O)[nH]c2o1 [Compound 784]
63 | 152 nM | CCCCC#CCOc1nc2oc(=O)cc(CCCC3CC3)c2c(=O)[nH]1 [Compound 719]
64 | 690 nM | CCCCc1cc(=O)oc2[nH]c(=O)nc(OCCF)c12 [Compound 827]
65 | 39 nM | COn1c(=O)[nH]c2oc(=O)cc(CCC3CCCC3)c2c1=O [Compound 772]
66 | 32.9 nM | CCCCc1cc(=O)oc2nc(OCC#CC(O)CC)[nH]c(=O)c12 (centres unmarked) [Compound 736]
67 | 64 nM | CCn1c(=O)[nH]c2oc(=O)cc(CCC3CCC3)c2c1=O [Compound 783]
68 | 286 nM | CCCCCCc1cc(=O)oc2nc(CF)[nH]c(=O)c12 [Compound 755]
69 | 31 nM | CCCCc1cc(=O)oc2[nH]c(=O)[nH]c(=O)c12 [Compound 102]
70 | 3450 nM | CCCCc1cc(=O)oc2[nH]c(=O)n(CF)c(=O)c12 [Compound 803]
71 | 123 nM | O=c1cc(CCCC2CC2)c2c(=O)[nH]c(CF)nc2o1 [Compound 741]
72 | 28 nM | COn1c(=O)[nH]c2oc(=O)cc(CCCC3CC3)c2c1=O [Compound 774]
73 | 1.2 nM | O=c1[nH]c(=O)c2c(CCC3CCCC3)cc(=O)oc2[nH]1 [Compound 125]
74 | 9 nM | CCc1cc(=O)oc2[nH]c(=O)n(C3CCC3)c(=O)c12 [Compound 35]
75 | 3250 nM | COn1c(=O)nc(OCCF)c2c(CCC3CCC3)cc(=O)oc21 [Compound 826]
76 | 2850 nM | CCCCc1cc(=O)oc2[nH]c(=O)n(OCC)c(=O)c12 [Compound 779]
77 | 156 nM | CCC#CC(C)Oc1nc2oc(=O)cc(CC)c2c(=O)[nH]1 (centres unmarked) [Compound 730]
78 | 38.5 nM | CCCCc1cc(=O)oc2[nH]c(=O)nc(OCF)c12 [Compound 788]
79 | 4.8 nM | O=c1[nH]c(=O)c2c(Cc3ccsc3)cc(=O)oc2[nH]1 [Compound 135]
80 | 183 nM | CCc1cc(=O)oc2nc(OCc3ccccc3F)[nH]c(=O)c12 [Compound 74]
81 | 50 nM | CCCCc1cc(=O)oc2nc(O[C@H]3C[C@H](COCc4ccccc4)C3)[nH]c(=O)c12 [Compound 791]
82 | 226 nM | CCCC#CCOc1nc2oc(=O)cc(CCC3CC3)c2c(=O)[nH]1 [Compound 721]
83 | 13 nM | O=c1cc(CCC2CCCC2)c2c(=O)n(C3CCC3)c(=O)[nH]c2o1 [Compound 241]
84 | 682 nM | CCCCc1cc(=O)oc2[nH]c(=O)nc(OCCOC)c12 [Compound 787]
85 | 59.5 nM | CCCCc1cc(=O)oc2nc(OCC#CC(C)O)[nH]c(=O)c12 (centres unmarked) [Compound 737]
86 | 1230 nM | O=c1cc(CCC2CCCC2)c2c(=O)[nH]c(CF)nc2o1 [Compound 747]
87 | > 10000 nM | COCCn1c(=O)[nH]c2oc(=O)cc(CCC3CC3)c2c1=O [Compound 800]
88 | 300 nM | CCCCc1c(-c2ccccc2)c(=O)oc2[nH]c(=O)[nH]c(=O)c12 [Compound 292]
89 | 296 nM | CCc1cc(=O)oc2nc(OCC#CC(C)OC)[nH]c(=O)c12 (centres unmarked) [Compound 723]
